The values that follow come from publication PMC7385629 (Scientific Reports, 2020).

For test [1], the target named is T1, NTAT (Leishmania donovani, UniProt A0A3Q8INT3). Also on record: gene LdCL_360030600. To be noted: co-substrate sodium pyruvate 100 mM; 30 µM PLP; pH 8; 37 °C; tyrosine 0-7 mM; apparent.
Test [2] has as its target T1, NTAT. Briefly: UV absorption scan […]-500 nm, aldimine bond formation. Format: binding. Further details: gene LdCL_360030600; N-terminal 60 residues (180 bp) deleted, starts T61, runs to native C-terminus; His-tag from pET28a(+), E. coli BL21, Ni-NTA; parent gene 1,347 bp. To be noted: 4 mM PLP; 0.5 and 1 mg/ml protein; 25 °C; 30 min; covalent, internal aldimine at K286.

The next test deals with T2, CTAT (Leishmania donovani, UniProt A0A3Q8INT3).
T2 construct: gene LdCL_360030600; C-terminal 60 residues (180 bp) deleted; printed 389 aa (1,167 bp; end may be 388); two His-tags (N and C) from pET28a(+), about 45 kDa on gel, E. coli BL21, Ni-NTA
T2 sequence (A0A3Q8INT3 entry or part of it): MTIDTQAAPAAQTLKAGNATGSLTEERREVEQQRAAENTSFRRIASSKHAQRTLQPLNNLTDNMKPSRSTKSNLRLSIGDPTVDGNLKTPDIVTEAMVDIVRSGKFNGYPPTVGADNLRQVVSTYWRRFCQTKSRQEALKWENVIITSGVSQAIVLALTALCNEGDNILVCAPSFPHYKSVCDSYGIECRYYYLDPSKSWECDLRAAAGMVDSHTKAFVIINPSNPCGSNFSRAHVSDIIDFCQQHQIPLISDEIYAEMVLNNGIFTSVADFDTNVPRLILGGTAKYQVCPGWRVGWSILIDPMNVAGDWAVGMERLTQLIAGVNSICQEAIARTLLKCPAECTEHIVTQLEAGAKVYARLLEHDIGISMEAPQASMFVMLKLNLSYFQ
The description is as above. In kind it is binding. The note with it: 4 mM PLP; 0.5 and 1 mg/ml protein; 25 °C; 30 min; covalent, internal aldimine at K286.

T1 sequence (A0A3Q8INT3 entry or part of it): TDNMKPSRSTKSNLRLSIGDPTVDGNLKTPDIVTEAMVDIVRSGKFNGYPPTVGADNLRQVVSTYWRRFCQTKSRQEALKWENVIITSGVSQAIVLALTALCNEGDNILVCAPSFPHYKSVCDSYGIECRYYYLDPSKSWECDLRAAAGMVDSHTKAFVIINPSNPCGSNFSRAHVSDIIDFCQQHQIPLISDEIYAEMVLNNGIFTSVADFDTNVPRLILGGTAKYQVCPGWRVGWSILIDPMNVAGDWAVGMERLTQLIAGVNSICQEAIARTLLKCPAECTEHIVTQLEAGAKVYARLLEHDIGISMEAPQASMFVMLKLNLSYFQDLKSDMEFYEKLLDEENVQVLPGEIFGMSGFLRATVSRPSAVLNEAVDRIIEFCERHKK

The term Km denotes the concentration of substrate that gives half-maximal velocity. Turning to `N[C@@H](Cc1ccc(O)cc1)C(=O)O` [tyrosine], the Michaelis constant (Km) on NTAT [1] came to 3.47 ± 0.796 mM.
With `Cc1ncc(COP(=O)(O)O)c(C=O)c1O` [PLP], the “UV absorption scan 300-500 nm, aldimine bond formation” value is “The increase in the concentration of NTAT or CTAT bound more PLP and formed aldimine bonds” on NTAT [2]; “In CTAT, the PLP binding was higher than NTAT” at CTAT.
